Results reported in article PMC10487436, “Towards Anticancer and Antibacterial Agents: Design and Synthesis of 1,2,3-Triazol-quinobenzothiazine Derivatives” (International Journal of Molecular Sciences, 2023).
In brackets after ≈: the same amount, converted by molar mass.

Key:
[1] = system: SNB-19 (human glioblastoma); assay: WST-1 proliferation assay, SNB-19; format: cell-based
Procedure: (§1) Compounds were evaluated for their antiproliferative activity using three cultured cell lines: A549 (human lung carcinoma, ATCC, Manassas, VA, USA), SNB-19 (human glioblastoma, DSMZ, German Collection of Microorganisms and Cell Cultures), T-47D (human breast cancer, ATCC, Manassas, VA, USA), and NHDF (normal human dermal fibroblasts, ATCC, Manassas, VA, USA). The cultured cells were kept at 37 °C and 5% CO2. The cells were seeded (1 × 10^4 cells/well/100 μL DMEM supplemented with 10% FCS, streptomycin, and penicillin) using 96-well plates (corning). Cells were counted in a hemocytometer (Burker chamber) using a phase contrast Olympus IX50 microscope equipped with a Sony SSC-DC58 AP camera and an Olympus DP10 digital camera.
(§2) The antiproliferative effect of the compounds exerted on cancer and normal cells was determined using the Cell Proliferation Reagent WST-1 assay (Roche Molecular Biochemicals, Mannheim, Germany). This assay is based on a colorimetric method using the enzymatic ability of viable cells to cause the bright, red-colored stable tetrazolium monosodium salt [2-(4-iodophenyl)-3-(4-nitrophenyl)-5-(2,4-disulfophenyl)–2H-tetra-zolium] to transform into the dark, red-colored soluble formazan. […] An increase in the amount of formazan dye formed correlated with the number of metabolically active cells in the culture. The formazan dye produced by metabolically active cells was quantified by absorbance readings at appropriate wavelengths. The examined cells were exposed to the tested compounds (1 mM DMSO stock) for 72 h at various concentrations (0.1–100 μM). The control was performed in order to eliminate the DMSO effect at the concentration used. Cell cultures were incubated with WST-1 (10 μL) for 1 h. The absorbance of the samples was measured against a background control at 450 nm using a microplate reader with a reference wavelength at 600 nm. The obtained results are expressed as the means of at least two independent experiments performed in triplicate. The antiproliferative activity of the tested compounds was compared to that of cisplatinum. The values of IC50 (a concentration of a compound that is required for 50% inhibition) were calculated from the dose-response relationship with respect to control. The results were reported as the mean (±std) of three separate experiments.

[2] = system: NHDF (normal human dermal fibroblasts); assay: WST-1 proliferation assay, NHDF; format: cell-based; details: normal cells, 72 h exposure
Procedure: as §1, §2

[3] = system: T-47D (human breast cancer); assay: WST-1 proliferation assay, T47D; format: cell-based; details: 72 h exposure
Procedure: as §1, §2

[4] = system: A549 (human lung carcinoma); assay: WST-1 proliferation assay, A549; format: cell-based
Procedure: as §1, §2

[5] = system: Mycobacterium smegmatis ATCC 700084; assay: MIC, broth dilution micro-method, MS; format: cell-based; details: Mycolicibacterium smegmatis, ATCC700084, 72 h; 3 days at 37 °C
[6] = system: Mycobacterium marinum CAMP 5644; assay: MIC, broth dilution micro-method, MM; format: cell-based; details: CAMP5644, 504 h, 21 days at 28 °C
[7] = system: Mycobacterium smegmatis ATCC 700084; assay: MBC, agar aliquot subculture method, MS; format: cell-based; details: Mycolicibacterium smegmatis, ATCC700084
Procedure: (§3) For the above-mentioned strains/isolates, the agar aliquot subculture method was used as a test for bactericidal agents. After the MIC value determination, the inoculum was transferred to CaMH (Oxoid) for staphylococci, BHI (Oxoid) for enterococci, and Middlebrook 7H9 (Difco) for mycobacteria medium using a multipoint inoculator. As indicated above, the plates were incubated on a thermostat at 37 °C for the appropriate time for each micro-organism. The lowest concentration of test compound at which ≤5 colonies were obtained was then evaluated as MBC, corresponding to a 99.9% decrease in CFU relative to the original inoculum.

[8] = system: Mycobacterium marinum CAMP 5644; assay: MBC, agar aliquot subculture method, MM; format: cell-based; details: CAMP5644
Procedure: as §3

[9] = system: Mycobacterium smegmatis ATCC 700084; details: MTT, 3 days
[10] = Homo sapiens, SNB-19, 72 h exposure
[11] = Homo sapiens, A549, 72 h exposure

Row | SMILES | IC50 [1, 10] [µM] | IC50 ([2]; Homo sapiens, NHDF) [µM] | IC50 ([3]; Homo sapiens, T47D) [µM] | IC50 [4, 11] [µM] | other results
1 | C=CCn1cc(COc2ccccc2N)nn1 [5a, 1-allyl-4-(2-aminophenoxy)methyl-1H-1,2,3-triazole] | > 100 | > 100 | > 100 | > 100 | 
2 | Nc1ccc(OCc2cn(Cc3ccccc3)nn2)cc1 [5f, 1-benzyl-4-(4-aminophenoxy)methyl-1H-1,2,3-triazole] | > 100 | > 100 | > 100 | > 100 | 
3 | Nc1cccc(OCc2cn(Cc3ccc([N+](=O)[O-])cc3)nn2)c1 [5h, 1-(4-nitrobenzyl)-4-(3-aminophenoxy)methyl-1H-1,2,3-triazole] | > 100 | > 100 | > 100 | > 100 | 
4 | Nc1ccc(OCc2cn(Cc3ccc([N+](=O)[O-])cc3)nn2)cc1 [5i, 1-(4-nitrobenzyl)-4-(4-aminophenoxy)methyl-1H-1,2,3-triazole] | > 100 | > 100 | > 100 | > 100 | 
5 | N.N.[Cl][Pt][Cl] [CIS, cisplatin, reference compound] |  |  |  |  | IC50 ([1]; 72 h exposure): 16.7 ± 1.3 µM; IC50 [2]: 29.9 ± 3.3 µM; IC50 [3]: 9 ± 0.7 µM; IC50 ([4]; 72 h exposure): 3 ± 0.2 µM
6 | O=C(O)c1cn(C2CC2)c2cc(N3CCNCC3)c(F)cc2c1=O [CPX, ciprofloxacin, reference compound] |  |  |  |  | MIC [5]: 0.38 µM (≈ 0.126 µg/mL); MIC [6]: 0.38 µM (≈ 0.126 µg/mL); MBC [7]: 0.38 µM (≈ 0.126 µg/mL); MBC [8]: 0.38 µM (≈ 0.126 µg/mL); Conc.: lowest multiple of MBC with at least 70% inhibition of respiratory activity [9]: 32× MIC (32× MBC); Conc.: lowest multiple of MIC with at least 70% inhibition of respiratory activity [9]: 32× MIC (32× MBC)
7 | COc1cccc2c1C(=O)c1c(O)c3c(c(O)c1C2=O)C[C@@](O)(C(=O)CO)C[C@@H]3O[C@H]1C[C@H](N)[C@H](O)[C@H](C)O1 [DOX, doxorubicin, reference compound] | 1.7 ± 0.2 | 5.5 ± 0.5 | 0.8 ± 0.1 | 1.3 ± 0.1 | 
8 | CO[C@H]1/C=C/O[C@@]2(C)Oc3c(C)c(O)c4c(O)c(c(/C=N/N5CCN(C)CC5)c(O)c4c3C2=O)NC(=O)/C(C)=C\C=C\[C@H](C)[C@H](O)[C@@H](C)[C@@H](O)[C@@H](C)[C@H](OC(C)=O)[C@@H]1C [RIF, rifampicin, reference compound] |  |  |  |  | MIC [5]: 19.4 µM (≈ 16 µg/mL); MIC [6]: 2.43 µM (≈ 2 µg/mL)
